From publication PMC10331583, “Control of fibrosis with enhanced safety via asymmetric inhibition of prolyl‐tRNA synthetase 1” (EMBO Molecular Medicine, 2023) come the findings set out here.

Structures are written as SMILES.

The test system of series [1] is WI‐26 VA4 cells stably expressing EV (empty vector). Conditions: human, 72 h.
Series [2] has as its system WI‐26 VA4 cells stably expressing PARS1 FA/EA/RL mutant. Conditions: human, 72 h.

On to `O=C(CC1NCCCC1O)Cn1cnc2cc(Br)c(Cl)cc2c1=O` (centres unmarked) [HF, Halofuginone, reference compound], for which, in series [1], the “Cytotoxicity HillSlope (best-fit value)” value is given as -0.8001 and the “Cytotoxicity LogIC50 (best-fit value)” value amounted to 1.811. Further, in series [2], the “Cytotoxicity HillSlope (best-fit value)” value is -0.8245 and the “Cytotoxicity LogIC50 (best-fit value)” value came to 1.805. Further, the “TI (CC50/IC50 for collagen level)” value in the series on WI‐26 VA4 cells is recorded as 3.46.
